Experimental data as given in PMC9316317, “Reducing the Kidney Uptake of High Contrast CXCR4 PET Imaging Agents via Linker Modifications” (Pharmaceutics, 2022).
Where a SMILES comes first, the peptide text is derived from it. Side-chain parts run from the residue outwards. [ ]: non-standard residue; d: D form. The star is where a group is joined. DOTA = O=C(O)CN1CCN(CC(=O)O)CCN(CC(=O)*)CCN(CC(=O)O)CC1; 2Nal = N[C@@H](Cc1ccc2ccccc2c1)C(=O)O; dNMeOrn = CN[C@H](CCCN)C(=O)O; 4Amb = NCc1ccc(C(=O)O)cc1

What was measured:
[1] = Ex vivo biodistribution in Daudi xenograft-bearing mice; conditions: male, NOD.Cg-Rag1tm1Mom Il2rgtm1Wjl/SzJ (NRG), mouse, iv, total radioactivity; for tissue uptake at 2 h: 2 h p.i.
Procedure: (§1) Male NOD.Cg-Rag1tm1Mom Il2rgtm1Wjl/SzJ (NRG) mice were obtained from an in-house breeding colony at the Animal Resource Centre of the BC Cancer Research Centre, Vancouver, Canada. Mice (6–10 weeks old, 25–30 g weight) were subcutaneously inoculated with 5 × 10^6 Daudi cells (100 μL; 1:1 ratio of PBS/Matrigel) on the left flank.
(§2) Additional groups of mice received 7.5 µg (0.25–0.3 mg/kg) LY2510924 as a blocking control i.p. 15 min before radiotracer injection, and euthanized 1 h p.i. Tissues were harvested, washed in PBS, blotted dry, and weighed, and radioactivity was counted on a Hidex AMG Automatic Gamma Counter. The counts were decay corrected, converted to absolute units using a calibration curve, and expressed as percent injected dose per gram of tissue (%ID/g).

[2] = tested on: CXCR4-expressing Daudi xenograft mice; test: as above
Procedure: as §1, §2

[3] = 1 h p.i. blocked with LY2510924, mean

A tissue uptake at 1 h ([1]; adrenals, Adrenals uptake, 1 h p.i. blocked with LY2510924, mean) of 0.38 %ID/g, a tissue uptake at 1 h ([1]; adrenals, Adrenals uptake, 1 h p.i., mean) of 0.34 %ID/g and a tissue uptake at 2 h ([1]; adrenals, Adrenals uptake, mean) of 0.18 %ID/g were found for `CN1C(=O)[C@@H](Cc2ccc(O)cc2)NC(=O)CNC(=O)[C@H](Cc2ccc3ccccc3c2)NC(=O)[C@H](CCCNC(=N)N)NC(=O)[C@H]1CCCNC(=O)c1ccc(CNC(=O)CN2CCN(CC(=O)O)CCN(CC(=O)O)CCN(CC(=O)O)CC2)cc1` [[68Ga]Ga-Pentixafor, metal not drawn] (cyclo([dY][dNMeOrn]([4Amb-DOTA])R[2Nal]G)) in this work. It also gave a tissue uptake at 1 h ([1]; blood, Blood uptake, 1 h p.i. blocked (7.5 µg LY2510924 i.p. 15 min before tracer), mean) of 1.23 %ID/g, a tissue uptake at 2 h ([1]; blood, Blood uptake, mean) of 0.28 ± 0.04 %ID/g and a tissue uptake at 1 h ([1]; bone, Bone uptake, 1 h p.i. blocked with LY2510924, mean) of 0.27 %ID/g. It also gave a tissue uptake at 1 h ([1]; bone, Bone uptake, 1 h p.i., mean) of 0.18 %ID/g, a tissue uptake at 2 h ([1]; bone, Bone uptake, mean) of 0.14 %ID/g and a tissue uptake at 1 h ([1]; brain, Brain uptake, 1 h p.i. blocked with LY2510924, mean) of 0.03 %ID/g. For the same compound, the tissue uptake at 1 h ([1]; brain, Brain uptake, 1 h p.i., mean) was 0.03 %ID/g, the tissue uptake at 2 h ([1]; brain, Brain uptake, mean) was 0.01 %ID/g and the tissue uptake at 1 h ([1]; fat, Fat uptake, 1 h p.i. blocked with LY2510924, mean) was 0.18 %ID/g. It also gave a tissue uptake at 1 h ([1]; fat, Fat uptake, 1 h p.i., mean) of 0.08 %ID/g, a tissue uptake at 2 h ([1]; fat, Fat uptake, mean) of 0.04 %ID/g and a tissue uptake at 1 h ([1]; heart, Heart uptake, 1 h p.i. blocked with LY2510924, mean) of 0.47 %ID/g. For the same compound, the tissue uptake at 1 h ([1]; heart, Heart uptake, 1 h p.i., mean) was 0.36 %ID/g, the tissue uptake at 2 h ([1]; heart, Heart uptake, mean) was 0.13 %ID/g and the tissue uptake at 1 h ([1]; intestine, Intestine uptake, 1 h p.i. blocked with LY2510924, mean) was 0.59 %ID/g. The tissue uptake at 2 h ([1]; intestine, Intestine uptake, mean) was 0.2 %ID/g, the tissue uptake at 1 h ([1]; kidney, Kidney uptake, 1 h p.i. blocked with LY2510924, mean) was 3.16 %ID/g and the tissue uptake at 1 h ([1]; kidney, Kidney uptake, 1 h p.i., mean) was 2.78 %ID/g. It also gave a tissue uptake at 2 h ([1]; kidney, Kidney uptake, mean) of 1.76 ± 0.38 %ID/g, a tissue uptake at 1 h ([1]; liver, Liver uptake, 1 h p.i. blocked with LY2510924, mean) of 1.25 %ID/g and a tissue uptake at 1 h ([1]; liver, Liver uptake, 1 h p.i., mean) of 1.23 ± 0.15 %ID/g. For the same compound, the tissue uptake at 2 h ([1]; liver, Liver uptake, mean) was 0.89 ± 0.12 %ID/g, the tissue uptake at 1 h ([1]; lung, Lung uptake, 1 h p.i. blocked with LY2510924, mean) was 1.39 %ID/g and the tissue uptake at 1 h ([1]; lung, Lung uptake, 1 h p.i., mean) was 1.16 ± 0.14 %ID/g. The tissue uptake at 2 h ([1]; lung, Lung uptake, mean) was 0.54 ± 0.08 %ID/g, the tissue uptake at 1 h ([1]; muscle, Muscle uptake, 1 h p.i. blocked with LY2510924, mean) was 0.26 %ID/g and the tissue uptake at 1 h ([1]; muscle, Muscle uptake, 1 h p.i., mean) was 0.2 %ID/g. It also gave a tissue uptake at 2 h ([1]; muscle, Muscle uptake, mean) of 0.06 ± 0.02 %ID/g, a tissue uptake at 1 h ([1]; pancreas, Pancreas uptake, 1 h p.i. blocked with LY2510924, mean) of 0.25 %ID/g and a tissue uptake at 1 h ([1]; pancreas, Pancreas uptake, 1 h p.i., mean) of 0.21 %ID/g. It also gave a tissue uptake at 2 h ([1]; pancreas, Pancreas uptake, mean) of 0.08 %ID/g, a tissue uptake at 1 h ([1]; spleen, Spleen uptake, 1 h p.i. blocked with LY2510924, mean) of 0.59 %ID/g and a tissue uptake at 1 h ([1]; spleen, Spleen uptake, 1 h p.i., mean) of 0.63 %ID/g. It also gave a tissue uptake at 2 h ([1]; spleen, Spleen uptake, mean) of 0.33 %ID/g, a tissue uptake at 1 h ([1]; stomach, Stomach uptake, 1 h p.i. blocked with LY2510924, mean) of 0.17 %ID/g and a tissue uptake at 1 h ([1]; stomach, Stomach uptake, 1 h p.i., mean) of 0.13 %ID/g. It also gave a tissue uptake at 2 h ([1]; stomach, Stomach uptake, mean) of 0.05 %ID/g, a tissue uptake at 1 h ([1]; testes, Testes uptake, 1 h p.i. blocked with LY2510924, mean) of 0.55 %ID/g and a tissue uptake at 1 h ([1]; testes, Testes uptake, 1 h p.i., mean) of 0.39 %ID/g. The tissue uptake at 2 h ([1]; testes, Testes uptake, mean) was 0.13 %ID/g, the tissue uptake at 1 h ([1]; tumor (Daudi xenograft), Tumor uptake (Daudi xenograft), 1 h p.i. blocked with LY2510924, mean) was 0.61 %ID/g and the tissue uptake at 1 h ([1]; tumor (Daudi xenograft), Tumor uptake (Daudi xenograft), 1 h p.i., mean) was 6.31 ± 1.02 %ID/g. The tissue uptake at 2 h ([1]; tumor (Daudi xenograft), Tumor uptake (Daudi xenograft), mean) was 5.23 %ID/g, the “Tumor:Blood ratio” value [2, 3] was 0.53 and the “Tumor:Bone ratio” value [2, 3] was 2.67. The “Tumor:Liver ratio” value [2, 3] was 0.50, the “Tumor:Lung ratio” value [2, 3] was 0.47 and the “Tumor:Muscle ratio” value [2, 3] was 2.55. The “Tumor:Spleen ratio” value [2, 3] was 1.14, the “Tumor:Blood ratio” value ([2]; 1 h p.i., mean) was 6.53 and the “Tumor:Bone ratio” value ([2]; 1 h p.i., mean) was 35.99. The “Tumor:Kidney ratio” value ([2]; 1 h p.i., mean) was 2.29 ± 0.38, the “Tumor:Liver ratio” value ([2]; 1 h p.i., mean) was 5.14 and the “Tumor:Lung ratio” value ([2]; 1 h p.i., mean) was 5.48. The “Tumor:Muscle ratio” value ([2]; 1 h p.i., mean) was 33.25, the “Tumor:Spleen ratio” value ([2]; 1 h p.i., mean) was 10.20 and the “Tumor:Blood ratio” value ([2]; 2 h p.i., mean) was 18.94. The “Tumor:Bone ratio” value ([2]; 2 h p.i., mean) was 43.48, the “Tumor:Kidney ratio” value ([2]; 2 h p.i., mean) was 3.07 ± 0.54 and the “Tumor:Liver ratio” value ([2]; 2 h p.i., mean) was 5.93. The “Tumor:Lung ratio” value ([2]; 2 h p.i., mean) was 9.95, the “Tumor:Muscle ratio” value ([2]; 2 h p.i., mean) was 95.44 and the “Tumor:Spleen ratio” value ([2]; 2 h p.i., mean) was 16.57.
